{"source": "paper PMC10057066", "about": "“Unraveling the Aquaporin-3 Inhibitory Effect of Rottlerin by Experimental and Computational Approaches” (International Journal of Molecular Sciences, 2023)", "target": "T1, aquaporin-3 (AQP3) (Homo sapiens, UniProt Q92482)", "T1 construct": "human AQP3 C-terminally GFP-tagged, expressed in aqy-null S. cerevisiae; endogenous AQP3 in human red blood cells", "T1 sequence (Q92482 1-292)": "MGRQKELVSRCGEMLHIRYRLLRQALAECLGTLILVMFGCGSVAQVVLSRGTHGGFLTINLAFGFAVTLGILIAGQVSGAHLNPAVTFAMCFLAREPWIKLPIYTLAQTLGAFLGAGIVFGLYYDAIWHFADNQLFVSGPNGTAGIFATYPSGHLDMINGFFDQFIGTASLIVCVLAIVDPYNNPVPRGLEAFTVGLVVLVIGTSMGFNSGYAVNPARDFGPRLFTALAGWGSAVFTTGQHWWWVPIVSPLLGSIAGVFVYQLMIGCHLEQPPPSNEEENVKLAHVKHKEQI", "experiment": "stopped-flow glycerol permeability in hRBCs (IC50), confirmed in hAQP3-expressing yeast ([…] inhibition at […])", "assay_type": "cell-based", "data": [{"smiles": "CC(=O)c1c(O)c(C)c(O)c(Cc2c(O)c3c(c(C(=O)/C=C/c4ccccc4)c2O)OC(C)(C)C=C3)c1O", "note": "[RoT, Rottlerin]", "values": [{"measurement": "IC50", "value": "6.7 ± 2.97", "unit": "µM"}]}]}
